Results from patent publication US11046699B2, “Pyrazolo-pyrimidin-amino-cycloalkyl compounds and their therapeutic uses” (RAPT THERAPEUTICS, INC., priority 2018, dated 2021).
Like-named read-outs stand apart in the source and are kept apart here.

Biological target: GCN2 (Homo sapiens, UniProt Q9P2K8)
Experiment: GCN2 enzymatic endpoint assay: phosphorylation of GFP-eIF2α measured by TR-FRET (Lanthascreen)
Format: biochemical
How it was run: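 Reaction started with 2 μM ATP and 80 nM GFP-labelled eIF2α substrate at room temperature, stopped with EDTA after 90 minutes. Phospho-eIF2α detected by terbium-labelled antibody TR-FRET; activity taken as 520 nm (fluorescein) to 495 nm (terbium) emission ratio.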

[1] = tested as described in Example 77, compound and/or hydrochloride, dihydrochloride or trifluoroacetic acid salt, read-out: IC 50 Activity
[2] = GCN2 biochemical IC50, 4 nM GCN2, 2 μM ATP, 80 nM GFP-eIF2α, 90 min RT, read-out: GCN2 activity

GCN2, sequence (Q9P2K8 whole entry): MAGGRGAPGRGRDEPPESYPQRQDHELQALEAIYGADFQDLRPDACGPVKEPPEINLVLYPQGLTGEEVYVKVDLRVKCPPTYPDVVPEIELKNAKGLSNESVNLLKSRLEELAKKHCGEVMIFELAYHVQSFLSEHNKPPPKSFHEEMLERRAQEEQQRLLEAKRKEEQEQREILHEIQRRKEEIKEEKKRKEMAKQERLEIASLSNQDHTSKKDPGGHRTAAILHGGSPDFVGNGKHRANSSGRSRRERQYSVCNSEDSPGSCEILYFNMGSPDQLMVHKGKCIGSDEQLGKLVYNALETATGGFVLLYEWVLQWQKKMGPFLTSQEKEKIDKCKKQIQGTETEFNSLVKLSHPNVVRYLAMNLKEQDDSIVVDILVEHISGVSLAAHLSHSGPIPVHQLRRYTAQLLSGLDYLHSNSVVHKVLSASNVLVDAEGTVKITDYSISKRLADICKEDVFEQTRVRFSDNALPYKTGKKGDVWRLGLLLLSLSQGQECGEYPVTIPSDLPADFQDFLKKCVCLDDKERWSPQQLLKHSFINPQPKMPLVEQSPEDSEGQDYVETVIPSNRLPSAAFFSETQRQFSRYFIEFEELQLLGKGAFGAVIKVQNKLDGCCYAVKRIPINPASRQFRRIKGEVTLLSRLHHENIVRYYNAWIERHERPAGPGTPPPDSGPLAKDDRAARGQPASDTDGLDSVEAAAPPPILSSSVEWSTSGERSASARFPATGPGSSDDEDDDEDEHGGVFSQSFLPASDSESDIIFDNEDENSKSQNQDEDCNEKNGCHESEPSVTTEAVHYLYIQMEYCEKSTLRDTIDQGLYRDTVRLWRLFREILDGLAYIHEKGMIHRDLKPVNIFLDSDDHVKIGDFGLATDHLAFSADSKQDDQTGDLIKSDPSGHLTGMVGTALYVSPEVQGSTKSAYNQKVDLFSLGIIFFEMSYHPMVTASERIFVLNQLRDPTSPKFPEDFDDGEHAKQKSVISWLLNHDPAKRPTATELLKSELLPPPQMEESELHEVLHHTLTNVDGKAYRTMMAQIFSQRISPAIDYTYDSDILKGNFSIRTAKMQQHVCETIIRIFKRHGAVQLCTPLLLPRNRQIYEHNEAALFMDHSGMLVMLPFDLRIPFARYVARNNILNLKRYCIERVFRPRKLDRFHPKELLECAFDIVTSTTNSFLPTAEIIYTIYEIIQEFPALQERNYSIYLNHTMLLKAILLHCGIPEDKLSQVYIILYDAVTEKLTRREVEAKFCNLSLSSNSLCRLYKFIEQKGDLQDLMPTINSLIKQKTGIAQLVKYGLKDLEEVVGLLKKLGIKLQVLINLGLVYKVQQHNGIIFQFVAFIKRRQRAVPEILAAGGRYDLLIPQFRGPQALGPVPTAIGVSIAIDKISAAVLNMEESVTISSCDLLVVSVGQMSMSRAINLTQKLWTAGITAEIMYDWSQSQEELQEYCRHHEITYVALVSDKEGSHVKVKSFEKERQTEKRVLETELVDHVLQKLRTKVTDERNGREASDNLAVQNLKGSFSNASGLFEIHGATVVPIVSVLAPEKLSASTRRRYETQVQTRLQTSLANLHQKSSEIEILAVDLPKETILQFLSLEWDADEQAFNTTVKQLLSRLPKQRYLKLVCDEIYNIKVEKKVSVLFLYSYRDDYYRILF

In the case of N#Cc1cc(-n2nc(Br)c3cnc(N[C@@H]4CC[C@@H](C(=O)N5CCC5)C4)nc32)cc2cccnc12 [6-(6-(((1R,3R)-3-(azetidine-1-carbonyl)cyclopentyl)amino)-3-bromo-1H-pyrazolo [3,4-d]pyrimidin-1-yl)quinoline-8-carbonitrile], the IC50 [1] is reported as 25 to 200 nM.

In the case of CNC(=O)[C@]1(C)CC[C@@H](Nc2ncc3c(Br)nn(-c4ccc(-c5ncco5)c(CCN5CCOCC5)c4)c3n2)C1 [(1R,3R)-3-[[3-bromo-1-[3-(2-morpholino-ethyl)-4-oxazol-2-yl-phenyl]pyrazolo [3,4-d]pyrimidin-6-yl]amino]-N,1-dimethyl-cyclopentanecarboxamide], the IC50 [1] is reported as 25 to 200 nM.

O=C([C@@H]1CC[C@@H](Nc2ncc3c(Br)nn(-c4ccc5ncccc5c4)c3n2)C1)N1CC(N2CCS(=O)(=O)CC2)C1 [((1R,3R)-3-((3-bromo-1-(quinolin-6-yl)-1H-pyrazolo[3,4-d]pyrimidin-6-yl)amino)cyclo-pentyl)(3-(1,1-dioxidothiomorpholino)azetidin-1-yl)methanone] showed an IC50 [1] of 25 to 200 nM.

Work on Cc1nnc(-c2ccc(-n3nc(Br)c4cnc(N[C@@H]5CCC6(CC(=O)N(C)C6=O)C5)nc43)cc2CCC#N)s1 (stereo partly drawn) [3-[5-[3-bromo-6-[[(8R)-2-methyl-1,3-dioxo-2-azaspiro[4.4]nonan-8-yl]amino]pyrazolo[3,4-d]pyrimidin-1-yl]-2-(5-methyl-1,3,4-thiadiazol-2-yl)phenyl]propanenitrile; 2,2,2-trifluoroacetic acid] yielded an IC50 [1] of 25 to 200 nM.

For CNC(=O)[C@]1(C)CC[C@@H](Nc2ncc3c(Br)nn(-c4ccc5nc(NC)ncc5c4)c3n2)C1, the IC50 [1] was 25 to 200 nM.

Work on NC(=O)C1(NC(=O)[C@@H]2CC[C@@H](Nc3ncc4c(Br)nn(-c5cc(F)c6ncccc6c5)c4n3)C2)CCC1 [(1R,3R)-3-[[3-bromo-1-(8-fluoro-6-quinolyl)pyrazolo[3,4-d]pyrimidin-6-yl]amino]-N-(1-carbamoylcyclobutyl)cyclopentane-carboxamide] yielded an IC50 [1] of 25 to 200 nM.

In the case of CNC(=O)[C@]1(C)CC[C@@H](Nc2ncc3c(Br)nn(-c4cc(F)cc(CC#N)c4)c3n2)C1 [(1R,3R)-3-[[3-bromo-1-[3-(cyanomethyl)-5-fluoro-phenyl]pyrazolo[3,4-d]pyrimidin-6-yl]amino]-N,1-dimethyl-cyclopentane-carboxamide], the IC50 [1] is reported as 25 to 200 nM.

CN(CCNC(=O)[C@@H]1CC[C@@H](Nc2ncc3c(Br)nn(-c4cc(F)c5ncccc5c4)c3n2)C1)CC(=O)O [N-(2-((1R,3R)-3-((3-bromo-1-(8-fluoroquinolin-6-yl)-1H-pyrazolo[3,4-d]pyrimidin-6-yl)amino)cyclopentane-1-carboxamido)ethyl)-N-methylglycine] showed an IC50 [1] of 25 to 200 nM.

O=C(NCCO)[C@@H]1CC[C@@H](Nc2ncc3c(Br)nn(-c4cc(F)c5ncccc5c4)c3n2)C1 [(1R,3R)-3-((3-bromo-1-(8-fluoroquinolin-6-yl)-1H-pyrazolo[3,4-d]pyrimidin-6-yl)amino)-N-(2-hydroxyethyl)cyclopentane-1-carboxamide] was tested, and the IC50 [1] was 25 to 200 nM.

CNC(=O)[C@]1(C)CC[C@@H](Nc2ncc3c(Br)nn(-c4cc(CN5CCNCCC5=O)c5ncccc5c4)c3n2)C1 [(1R,3R)-3-[[3-bromo-1-[8-[(7-oxo-1,4-diazepan-1-yl)methyl]-6-quinolyl]pyrazolo[3,4-d]pyrimidin-6-yl]amino]-N,1-dimethyl-cyclopentanecarboxamide] gave an IC50 [1] of 25 to 200 nM.

With CNC(=O)[C@@H]1CC[C@@H](Nc2ncc3c(Br)nn(-c4cnc5ncccc5c4)c3n2)C1 [(1R,3R)-3-[[3-bromo-1-(1,8-naphthyridin-3-yl)pyrazolo[3,4-d]pyrimidin-6-yl]amino]-N-methyl-cyclopentanecarboxamide] the IC50 [1] was 25 to 200 nM.

For CNC(=O)[C@]1(C)CC[C@@H](Nc2ncc3c(Br)nn(-c4cc(CCCN)c5ncccc5c4)c3n2)C1 [(1R,3R)-3-[[1-[8-(3-aminopropyl)-6-quinolyl]-3-bromo-pyrazolo[3,4-d]pyrimidin-6-yl]amino]-N,1-dimethyl-cyclopentanecarboxamide], the IC50 [1] was 25 to 200 nM.

In the case of CNC(=O)[C@]1(C)CC[C@@H](Nc2ncc3c(Br)nn(-c4ccc(-c5nnc(C)s5)c(C#N)c4)c3n2)C1 [Example 69, (1R,3R)-3-((3-bromo-1-(3-cyano-4-(5-methyl-1,3,4-thiadiazol-2-yl)phenyl)-1H-pyrazolo[3,4-d]pyrimidin-6-yl)amino)-N,1-dimethylcyclopentane-1-carboxamide], the IC50 [2] is reported as < 25 nM.

Molecule CNC(=O)[C@]1(C)CC[C@@H](Nc2ncc3c(Br)nn(-c4cc(CCCOC)c5c(c4)CCC(=O)N5C)c3n2)C1 [(1R,3R)-3-[[3-bromo-1-[8-(3-methoxy-propyl)-1-methyl-2-oxo-3,4-dihydro-quinolin-6-yl]pyrazolo[3,4-d]pyrimidin-6-yl]amino]-N,1-dimethyl-cyclopentane-carboxamide; 2,2,2-trifluoroacetic acid] has an IC50 [1] of 25 to 200 nM.

CNC(=O)[C@]1(C)CC[C@@H](Nc2ncc3c(Br)nn(-c4cccc(NC(=O)c5cnccn5)c4)c3n2)C1 [Example 54, N-(3-(3-bromo-6-(((1R,3R)-3-methyl-3-(methylcarbamoyl)cyclopentyl)amino)-1H-pyrazolo[3,4-d]pyrimidin-1-yl)phenyl)pyrazine-2-carboxamide] showed an IC50 [2] of 25 to 200 nM.

With CNC(=O)[C@]1(C)CC[C@@H](Nc2ncc3c(Br)nn(-c4ccc5ncc(OCCOC)cc5c4)c3n2)C1 [(1R,3R)-3-[[3-bromo-1-[3-(2-methoxy-ethoxy)-6-quinolyl]pyrazolo[3,4-d]pyrimidin-6-yl]amino]-N,1-dimethyl-cyclopentanecarboxamide] the IC50 [1] was 25 to 200 nM.

With C[C@H](N)c1cc(Cl)cc(-n2nc(Br)c3cnc(N[C@@H]4CC[C@@](C)(C(=O)N5CCNCC5)C4)nc32)c1 [[(1R,3R)-3-[[1-[3-[(1S)-1-aminoethyl]-5-chloro-phenyl]-3-bromo-pyrazolo [3,4-d]pyrimidin-6-yl]amino]-1-methyl-cyclopentyl]-piperazin-1-yl-methanone] the IC50 [1] was 25 to 200 nM.

Molecule COCc1noc([C@@H]2CC[C@@H](Nc3ncc4c(Br)nn(-c5ccc6ncccc6c5)c4n3)C2)n1 [Example 5, 3-bromo-N-((1R,3R)-3-(3-(methoxymethyl)-1,2,4-oxadiazol-5-yl)cyclopentyl)-1-(quinolin-6-yl)-1H-pyrazolo[3,4-d]pyrimidin-6-amine] has an IC50 [2] of 500 to 1000 nM.

Work on CS(=O)(=O)CCNC(=O)[C@@H]1CC[C@@H](Nc2ncc3c(Br)nn(-c4ccc5ncc(F)cc5c4)c3n2)C1 yielded an IC50 [1] of 200 to 500 nM.

Work on Cc1nnc(-c2ccc(-n3nc(Br)c4cnc(N[C@@H]5CC[C@@](C)(C(=O)N6CCNC(=O)C6)C5)nc43)cc2)o1 [4-[(1R,3R)-3-[[3-bromo-1-[4-(5-methyl-1,3,4-oxadiazol-2-yl)phenyl]pyrazolo [3,4-d]pyrimidin-6-yl]amino]-1-methyl-cyclopentanecarbonyl]piperazin-2-one] yielded an IC50 [1] of 25 to 200 nM.

O[C@@H]1CCC[C@@H]1Nc1ncc2c(Br)nn(-c3cc(F)c4ncccc4c3)c2n1 [(1R,2S)-2-[[3-bromo-1-(8-fluoro-6-quinolyl)pyrazolo[3,4-d]pyrimidin-6-yl]amino]cyclopentanol] showed an IC50 [1] of 25 to 200 nM.

In the case of CS(=O)(=O)C1CC[C@@H](Nc2ncc3c(Br)nn(-c4cc(CCN)c5nccnc5c4)c3n2)C1 (stereo partly drawn) [1-[8-(2-aminoethyl)quinoxalin-6-yl]-3-bromo-N-[(1R)-3-methylsulfonylcyclo-pentyl]pyrazolo[3,4-d]pyrimidin-6-amine], the IC50 [1] is reported as < 25 nM.

Molecule Cc1nnc(-c2ccc(-n3nc(Br)c4cnc(N[C@@H]5CC[C@]6(CCNC6=O)C5)nc43)cc2)s1 has an IC50 [1] of 25 to 200 nM.

With CNC(=O)[C@@H]1CC[C@@H](Nc2ncc3c(Br)nn(-c4ccc(-c5nnn[nH]5)cc4)c3n2)C1 [(1R,3R)-3-((1-(4-(1H-tetrazol-5-yl)phenyl)-3-bromo-1H-pyrazolo[3,4-d]pyrimidin-6-yl)amino)-N-methylcyclopentane-1-carboxamide] the IC50 [1] was 25 to 200 nM.

For CNC(=O)[C@]1(C)CC[C@@H](Nc2ncc3c(Br)nn(-c4cc(CCNC(=O)/C=C/CN(C)C)c5ncccc5c4)c3n2)C1 [(1R,3R)-3-[[3-bromo-1-[8-[2-[[(E)-4-(dimethylamino)but-2-enoyl]amino]ethyl]-6-quinolyl]pyrazolo[3,4-d]pyrimidin-6-yl]amino]-N,1-dimethyl-cyclopentane-carboxamide], the IC50 [1] was 25 to 200 nM.

O=C(NC1CCS(=O)(=O)CC1)[C@@H]1CC[C@@H](Nc2ncc3c(Br)nn(-c4ccc5ncccc5c4)c3n2)C1 showed an IC50 [1] of 25 to 200 nM.

With Cc1nnc(-c2ccc(-n3nc(Br)c4cnc(N[C@@H]5CCC(C)(C(=O)N6CCOCC6)C5)nc43)cc2)o1 (stereo partly drawn) [[(3R)-3-[[3-bromo-1-[4-(5-methyl-1,3,4-oxadiazol-2-yl)phenyl]pyrazolo[3,4-d]pyrimidin-6-yl]amino]-1-methyl-cyclopentyl]-morpholino-methanone] the IC50 [1] was 25 to 200 nM.

With N#Cc1cc(-n2nc(Br)c3cnc(N[C@@H]4CC[C@@H](C(=O)N[C@H]5CCNC5)C4)nc32)cc2cccnc12 [(1R,3R)-3-((3-bromo-1-(8-cyanoquinolin-6-yl)-1H-pyrazolo[3,4-d]pyrimidin-6-yl)amino)-N-((S)-pyrrolidin-3-yl)cyclopentane-1-carboxamide] the IC50 [1] was < 25 nM.

Work on N#Cc1cc(-n2nc(Br)c3cnc(N[C@@H]4CC[C@H](C(=O)NCC5(F)CNC5)C4)nc32)cc2cccnc12 [(1S,3R)-3-((3-bromo-1-(8-cyanoquinolin-6-yl)-1H-pyrazolo[3,4-d]pyrimidin-6-yl)amino)-N-((3-fluoroazetidin-3-yl)methyl)cyclo-pentane-1-carboxamide] yielded an IC50 [1] of 25 to 200 nM.

CNC(=O)[C@@]1([C@H](C)C#N)CC[C@@H](Nc2ncc3c(Br)nn(-c4ccc(-c5nnc(C)s5)cc4)c3n2)C1 [(1S,3R)-3-[[3-bromo-1-[4-(5-methyl-1,3,4-thiadiazol-2-yl)phenyl]pyrazolo [3,4-d]pyrimidin-6-yl]amino]-1-[(1S)-1-cyanoethyl]-N-methyl-cyclopentane-carboxamide] gave an IC50 [1] of 25 to 200 nM.

In the case of Cc1nnc(-c2ccc(-n3nc(Br)c4cnc(N[C@@H]5CC[C@@](C)(C(=O)O)C5)nc43)cc2CCN)s1 [(1R,3R)-3-[[1-[3-(2-aminoethyl)-4-(5-methyl-1,3,4-thiadiazol-2-yl)phenyl]-3-bromo-pyrazolo[3,4-d]pyrimidin-6-yl]amino]-1-methyl-cyclopentanecarboxylic acid], the IC50 [1] is reported as 25 to 200 nM.
